In patent publication US4746736A, “Carbapenem antibiotics” (priority 1986, dated 1988):
In brackets after ≈: the same amount, converted by molar mass. Where two headings read alike, the source gives them in different places.

What was measured:
Type in all cases: cell-based
E. coli A20341-1 = experiment: In vitro MIC by tube dilution, E. coli A20341-1; conditions: Escherichia coli, A203411, read-out: MIC
[1] = test system: S. aureus A-9606 (Pen-res.); experiment: In vitro MIC by tube dilution, S. aureus A-9606 (Pen-res.); conditions: Staphylococcus aureus, S. aureus A-9606 (Pen-res); read-out: MIC
K. pneumoniae A20468 = experiment: In vitro MIC by tube dilution, K. pneumoniae A20468; conditions: Klebsiella pneumoniae, read-out: MIC
E. cloacae A-9659 = experiment: In vitro MIC by tube dilution, E. cloacae A-9659; conditions: Enterobacter cloacae, A9659, E. cloacae A-9659; read-out: MIC
E. cloacae A-9656 = experiment: In vitro MIC by tube dilution, E. cloacae A-9656; conditions: Enterobacter cloacae, A9656, E. cloacae A-9656; read-out: MIC
E. coli A15119 = experiment: In vitro MIC by tube dilution, E. coli A15119; conditions: Escherichia coli, read-out: MIC
S. faecalis A20688 = experiment: In vitro MIC by tube dilution, S. faecalis A20688; conditions: Enterococcus faecalis, A20688, S. faecalis A20688; read-out: MIC
S. aureus A-9537 = experiment: In vitro MIC by tube dilution, S. aureus A-9537; conditions: Staphylococcus aureus, read-out: MIC
S. marcescens A20019 = experiment: In vitro MIC by tube dilution, S. marcescens A20019; conditions: Serratia marcescens, read-out: MIC
P. morganii A15153 = experiment: In vitro MIC by tube dilution, P. morganii (M. morganii) A15153; conditions: Morganella morganii, read-out: MIC
P. mirabilis A-9900 = experiment: In vitro MIC by tube dilution, P. mirabilis A-9900; conditions: Proteus mirabilis, A9900, P. mirabilis A-9900; read-out: MIC
P. aeruginosa A-9843A = experiment: In vitro MIC by tube dilution, P. aeruginosa A-9843A; conditions: Pseudomonas aeruginosa, A9843A, P. aeruginosa A-9843a; read-out: MIC
K. pneumoniae A-9664 = experiment: In vitro MIC by tube dilution, K. pneumoniae A-9664; conditions: Klebsiella pneumoniae, A9664, read-out: MIC
P. aeruginosa A21213 = experiment: In vitro MIC by tube dilution, P. aeruginosa A21213; conditions: Pseudomonas aeruginosa, A21213, P. aeruginosa A21213; read-out: MIC
S. pneumoniae A-9585 = experiment: In vitro MIC by tube dilution, S. pneumoniae A-9585; conditions: Streptococcus pneumoniae, A9585, S. pneumoniae A-9585; read-out: MIC
P. rettgeri A22424 = experiment: In vitro MIC by tube dilution, P. rettgeri A22424; conditions: Providencia rettgeri, A22424, P. rettgeri A22424; read-out: MIC
S. pyogenes A9604 = experiment: In vitro MIC by tube dilution, S. pyogenes A9604; conditions: Streptococcus pyogenes, A9604, S. pyogenes A-9604; read-out: MIC
[2] = A9537, S. aureus A-9537 +50% serum
[3] = A9537, S. aureus A-9537, no serum

| SMILES | MIC (E. coli A20341-1) [µg/mL] | MIC [1] [µg/mL] | MIC (K. pneumoniae A20468; A20468, K. pneumoniae A20468) [µg/mL] | MIC (E. cloacae A-9659) [µg/mL] | MIC (E. cloacae A-9656) [µg/mL] | MIC (E. coli A15119; E. coli A15119) [µg/mL] | MIC (S. aureus A-9537; [2]) [µg/mL] | MIC (S. aureus A-9537; [3]) [µg/mL] | MIC (S. marcescens A20019) [µg/mL] | MIC (P. morganii A15153; A15153, M. morganii A15153) [µg/mL] | MIC (P. mirabilis A-9900) [µg/mL] | MIC (P. aeruginosa A-9843A) [µg/mL] | MIC (K. pneumoniae A-9664) [µg/mL] | MIC (S. pneumoniae A-9585) [ng/mL] | MIC (P. rettgeri A22424) [µg/mL] | MIC (S. pyogenes A9604) [ng/mL] | MIC (E. coli A15119; A15119, E. coli A15119) [µg/mL] | also measured |
| --- | --- | --- | --- | --- | --- | --- | --- | --- | --- | --- | --- | --- | --- | --- | --- | --- | --- | --- |
| C[C@@H](O)[C@H]1C(=O)N2C(C(=O)[O-])=C(SCc3n(Cc4ccccc4)cc[n+]3C)C[C@H]12 [Example 13, 3-(N-Methyl-N'-benzylimidazole-2-yl-methanethio)-6α-[1-(R)-hydroxyethyl]-7-oxo-1-azabicyclo(3.2.0)hept-2-ene-2-carboxylate] | 0.008 (≈ 0.0193 µM) | 0.008 (≈ 0.0193 µM) | 0.13 (≈ 0.314 µM) | 0.06 (≈ 0.145 µM) | 0.03 (≈ 0.0726 µM) | 0.004 (≈ 0.00967 µM) | 0.016 (≈ 0.0387 µM) | 0.008 (≈ 0.0193 µM) | 0.016 (≈ 0.0387 µM) | 0.016 (≈ 0.0387 µM) | 0.016 (≈ 0.0387 µM) | 32 (≈ 77.4 µM) | 0.03 (≈ 0.0726 µM) | – | – | – | – | MIC (S. faecalis A20688): 0.13 µg/mL (≈ 0.314 µM) |
| C[C@@H](O)[C@H]1C(=O)N2C(C(=O)[O-])=C(SCc3n(C)nc[n+]3C)C[C@H]12 [Example 19, 3-[5-(1,4-Dimethyl-1,2,4-triazolium)methanethio]-6α-[1-(R)-hydroxyethyl]-7-oxo-1-azabicyclo[3.2.0]hept-2-ene-2-carboxylate] | 0.008 (≈ 0.0236 µM) | 0.016 (≈ 0.0473 µM) | 0.06 (≈ 0.177 µM) | 0.03 (≈ 0.0887 µM) | 0.03 (≈ 0.0887 µM) | 0.008 (≈ 0.0236 µM) | – | 0.004 (≈ 0.0118 µM) | 0.03 (≈ 0.0887 µM) | 0.06 (≈ 0.177 µM) | 0.03 (≈ 0.0887 µM) | – | 0.03 (≈ 0.0887 µM) | 2 (≈ 0.00591 µM) | 0.13 (≈ 0.384 µM) | 2 (≈ 0.00591 µM) | – | MIC (P. aeruginosa A21213): 0.06 µg/mL (≈ 0.177 µM) |
| C[C@@H](O)[C@H]1C(=O)N2C(C(=O)[O-])=C(SCc3ccc[n+](C)c3)C[C@H]12 [Example 3, 3-(N-Methylpyridine-3-yl-methanethio)-6α-[1-(R)-hydroxyethyl]-7-oxo-1-azabicyclo(3.2.0)hept-2-ene-2-carboxylate] | 0.016 (≈ 0.0478 µM) | 0.016 (≈ 0.0478 µM) | 0.06 (≈ 0.179 µM) | 0.13 (≈ 0.389 µM) | 0.13 (≈ 0.389 µM) | 0.03 (≈ 0.0897 µM) | 0.016 (≈ 0.0478 µM) | 0.016 (≈ 0.0478 µM) | 0.016 (≈ 0.0478 µM) | 0.13 (≈ 0.389 µM) | 0.13 (≈ 0.389 µM) | 2 (≈ 5.98 µM) | 0.06 (≈ 0.179 µM) | 2 (≈ 0.00598 µM) | – | 2 (≈ 0.00598 µM) | – | – |
| Cc1scc(CSC2=C(C(=O)[O-])N3C(=O)[C@H]([C@@H](C)O)[C@H]3C2)[n+]1C [Example 8, 3-(2-Methyl-N-methylthiazole-4-yl-methanethio)-6α-[1-(R)-hydroxyethyl]-7-oxo-1-azabicyclo(3.2.0)hept-ene-2-carboxylate] | 0.03 (≈ 0.0846 µM) | 0.03 (≈ 0.0846 µM) | 0.13 (≈ 0.367 µM) | 0.13 (≈ 0.367 µM) | 0.06 (≈ 0.169 µM) | – | 0.03 (≈ 0.0846 µM) | 0.008 (≈ 0.0226 µM) | 0.06 (≈ 0.169 µM) | – | 0.13 (≈ 0.367 µM) | 1 (≈ 2.82 µM) | 0.03 (≈ 0.0846 µM) | 2 (≈ 0.00564 µM) | 0.13 (≈ 0.367 µM) | 2 (≈ 0.00564 µM) | 0.016 (≈ 0.0451 µM) | – |
| C[C@@H](O)[C@H]1C(=O)N2C(C(=O)[O-])=C(SCc3cn(C)n[n+]3CC(=O)O)C[C@H]12 [Example 17, Potassium 3-[5-(1-carboxylatomethyl-3-methyl-1,2,3-triazolium)-methanethio]-6α-[1-(R)-hydroxyethyl]-7-oxo-1-azabicyclo[3.2.0]hept-2-ene-2-carboxylate] | – | – | – | – | – | – | – | – | 0.13 | – | 0.13 | > 63 | 0.13 | 16 | – | 16 | – | – |
| Cc1c(CSC2=C(C(=O)[O-])N3C(=O)[C@H]([C@@H](C)O)[C@H]3C2)ccc[n+]1C [Example 14, 3-(2-Methyl-N-methylpyridine-3-yl-methanethio)-6α-[1-(R)-hydroxyethyl]-7-oxo-1-azabicyclo(3.2.0)hept-2-ene-2-carboxylate] | 0.008 (≈ 0.023 µM) | 0.016 (≈ 0.0459 µM) | – | 0.03 (≈ 0.0861 µM) | 0.03 (≈ 0.0861 µM) | 0.008 (≈ 0.023 µM) | 0.03 (≈ 0.0861 µM) | 0.008 (≈ 0.023 µM) | 0.016 (≈ 0.0459 µM) | – | 0.016 (≈ 0.0459 µM) | 8 (≈ 23 µM) | 0.03 (≈ 0.0861 µM) | – | 0.06 (≈ 0.172 µM) | – | – | MIC (K. pneumoniae A20468; K. pneumoniae A20468): 0.03 µg/mL (≈ 0.0861 µM); MIC (S. faecalis A20688): 0.13 µg/mL (≈ 0.373 µM); MIC (P. morganii A15153; M. morganii A15153): 0.03 µg/mL (≈ 0.0861 µM) |
| C[C@@H](O)[C@H]1C(=O)N2C(C(=O)[O-])=C(SCc3cs[n+](C)n3)C[C@H]12 [Example 16, (5R,6S) 6-(1R-hydroxyethyl)-3-(2-methyl-1,2,3-thiadiazolium-4-ylmethylthio)-7-oxo-1-azabicyclo[3.2.0]hept-2-ene-2-carboxylate] | 0.016 (≈ 0.0469 µM) | 0.016 (≈ 0.0469 µM) | 0.06 (≈ 0.176 µM) | 0.06 (≈ 0.176 µM) | 0.06 (≈ 0.176 µM) | – | 0.03 (≈ 0.0879 µM) | 0.008 (≈ 0.0234 µM) | 0.06 (≈ 0.176 µM) | – | 0.06 (≈ 0.176 µM) | 0.25 (≈ 0.732 µM) | 0.06 (≈ 0.176 µM) | 2 (≈ 0.00586 µM) | – | 2 (≈ 0.00586 µM) | 0.016 (≈ 0.0469 µM) | – |
| Cc1sc(CSC2=C(C(=O)[O-])N3C(=O)[C@H]([C@@H](C)O)[C@H]3C2)c(C)[n+]1C [Example 10, 3-(2,3,4,-Trimethylthiazole-5-yl-methanethio)-6α[1-(R)-hydroxyethyl]-7-oxo-1-azabicyclo(3.2.0)hept-2-ene-2-carboxylate] | 0.008 (≈ 0.0217 µM) | 0.008 (≈ 0.0217 µM) | 0.13 (≈ 0.353 µM) | 0.13 (≈ 0.353 µM) | 0.13 (≈ 0.353 µM) | – | – | 0.008 (≈ 0.0217 µM) | – | – | 0.13 (≈ 0.353 µM) | 32 (≈ 86.8 µM) | – | – | 0.13 (≈ 0.353 µM) | – | 0.016 (≈ 0.0434 µM) | – |
| C[C@@H](O)[C@H]1C(=O)N2C(C(=O)[O-])=C(SCc3cccc[n+]3C)C[C@H]12 [Example 4, 3-(N-Methylpyridine-2-yl-methanethio)-6α-[1-(R)-hydroxyethyl]-7-oxo-1-azabicyclo(3.2.0)hept-2-ene-2-carboxylate] | 0.016 (≈ 0.0478 µM) | 0.016 (≈ 0.0478 µM) | – | – | – | – | – | 0.008 (≈ 0.0239 µM) | – | 0.016 (≈ 0.0478 µM) | – | 2 (≈ 5.98 µM) | – | 2 (≈ 0.00598 µM) | – | – | 0.016 (≈ 0.0478 µM) | – |
| C[C@@H](O)[C@H]1C(=O)N2C(C(=O)[O-])=C(SCc3n[n+](C)nn3C)C[C@H]12 [Example 20, (1'R,5R,6S) 3-[(1,3-dimethyl-5-tetrazolium)-methylthio]-6-(1-hydroxyethyl)-7-oxo-1-azabicyclo[3.2.0]hept-2-ene-2-carboxylate] | – | > 125 | – | 8 (≈ 23.6 µM) | – | – | 2 (≈ 5.89 µM) | – | – | 8 (≈ 23.6 µM) | – | 32 (≈ 94.3 µM) | – | 60 (≈ 0.177 µM) | 8 (≈ 23.6 µM) | 130 (≈ 0.383 µM) | – | – |
